These are literature values, as cited in US9447074B2, “Compounds” (Glaxo Group Limited, priority 2011, dated 2016).

Series [1] deals with allergic rhinitis. To be noted: dosed intranasally, phase I/II.
Series [2] relates to allergic rhinitis. To be noted: phase II.
The subject of series [3] is B-Cell non-Hodgkin's lymphoma (NHL).
The test system of the next series is B lymphoma (BKS-2). To be noted: murine model of B lymphoma (BKS-2).

For `Oc1cccc(Nc2ncc(F)c(Nc3cccc(O)c3)n2)c1` [Example R112], in the series on allergic rhinitis [1], the PGD2 result is “statistically significant decrease” and the clinical safety result is recorded as “safe across a range of indicators”. Also, the efficacy versus placebo entry in the series on allergic rhinitis [2] is “lack of efficacy versus placebo”.
For the compound `COc1cc(Nc2ncc(F)c(Nc3ccc4c(n3)N(COP(=O)(O)O)C(=O)C(C)(C)O4)n2)cc(OC)c1OC` [Example R788, fostamatinib disodium], the therapeutic benefit entry in series [3] (patients with DLBCL and CLL/SLL) is recorded as “therapeutic benefit”. Also, the tolerability result in series [3] (patients with relapsed or refractory B-Cell NHL) was “well-tolerated”.
Take `COc1cc(/C=C/C(=O)CC(=O)/C=C/c2ccc(O)c(OC)c2)ccc1O` [curcumin]: the “tumour burden as measured by the total splenocyte number” value in the series with B lymphoma (BKS-2) is given as “significant reduction of tumour burden”.
